Where a name gives a salt, the structure may show the parent alone.
Tested on: Acinetobacter baumannii ATCC 17961
Test: Antimicrobial susceptibility testing: 90% growth inhibitory concentration (IC90) determination
Format: cell-based
Details: ATCC17961, Acinetobacter baumannii ATCC 17961, Iso-Sensitest broth, read-out: ATCC 17961 IC90
How it was run: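 Growth was followed kinetically by OD600 at 20-min intervals for 16 h at 35±2 °C, with ~5×10^5 CFU/ml in Iso-Sensitest broth. Compounds were tested as twofold dilutions (e.g. 50–0.097 μM final). The concentration giving 90% inhibition of log-phase growth was reported.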

Structure (SMILES)	IC90 [nM]
Cn1c(-c2cn(CCC(C)(C)O)nc2C(F)(F)F)cnc1C(=O)Nc1ccc(C(=O)N2CCN(C(=O)C3CCNCC3)CC2)c(Cl)c1 [Example 104, N-[3-chloro-4-[4-(piperidine-4-carbonyl)piperazine-1-carbonyl]phenyl]-5-[1-(3-hydroxy-3-methylbutyl)-3-(trifluoromethyl)pyrazol-4-yl]-1-methylimidazole-2-carboxamide;hydrochloride]	1020
Cn1c(-c2cn(C3CC4(CC4)C3)nc2C(F)(F)F)cnc1C(=O)Nc1ccc(C(=O)N2CCN(C(=O)C3CCNCC3)CC2)c(Cl)c1 [Example 108, N-[3-chloro-4-[4-(piperidine-4-carbonyl)piperazine-1-carbonyl]phenyl]-1-methyl-5-[1-spiro[2.3]hexan-5-yl-3-(trifluoromethyl)pyrazol-4-yl]imidazole-2-carboxamide;hydrochloride]	248
C#CCn1cc(-c2cnc(C(=O)Nc3ccc(C(=O)N4CCN(C(=O)[C@H]5[C@@H]6CNC[C@@H]65)CC4)c(Cl)c3)n2C)c(C(F)(F)F)n1 [Example 92, N-[3-chloro-4-[4-[rac-(1R,5S)-3-azabicyclo[3.1.0]hexane-6-carbonyl]piperazine-1-carbonyl]phenyl]-1-methyl-5-[1-prop-2-ynyl-3-(trifluoromethyl)pyrazol-4-yl]imidazole-2-carboxamide;hydrochloride]	103
C[C@H](N)C(=O)N1CCN(C(=O)c2ccc(NC(=O)c3ncc(-c4cn(Cc5cccnc5)nc4C(F)(F)F)n3C)cc2Cl)CC1 [Example 62, N-[4-[4-[(2S)-2-Aminopropanoyl]piperazine-1-carbonyl]-3-chlorophenyl]-1-methyl-5-[1-(pyridin-3-ylmethyl)-3-(trifluoromethyl)pyrazol-4-yl]imidazole-2-carboxamide trihydrochloride]	834
C#CCn1cc(-c2cnc(C(=O)Nc3ccc(C(=O)N4CCN(C(=O)N5CCNCC5)CC4)c(Cl)c3)n2C)c(C(F)(F)F)n1 [Example 77, N-[3-chloro-4-[4-(piperazine-1-carbonyl)piperazine-1-carbonyl]phenyl]-1-methyl-5-[1-prop-2-ynyl-3-(trifluoromethyl)pyrazol-4-yl]imidazole-2-carboxamide]	257
Cn1cc(-c2cnc(C(=O)Nc3ccc(C(=O)N4CCN(C(=O)C5CCNCC5)CC4)c(Cl)c3)n2C)c(C(F)(F)F)n1 [Example 115, N-[3-chloro-4-[4-(piperidine-4-carbonyl)piperazine-1-carbonyl]phenyl]-1-methyl-5-[1-methyl-3-(trifluoromethyl)pyrazol-4-yl]imidazole-2-carboxamide;hydrochloride]	1250
C#CCn1cc(-c2cnc(C(=O)Nc3ccc(C(=O)N4CCN(C(=O)[C@H]5CCNC5)CC4)c(Cl)c3)n2C)c(C(F)(F)F)n1 [Example 37, N-[3-chloro-4-[4-[(3S)-pyrrolidine-3-carbonyl]piperazine-1-carbonyl]phenyl]-1-methyl-5-[1-prop-2-ynyl-3-(trifluoromethyl)pyrazol-4-yl]imidazole-2-carboxamide hydrochloride]	233

More lines, now with the values ahead:

IC90 [nM]	Structure (SMILES)
379	Cn1c(-c2cn(C3CC3(F)F)nc2C(F)(F)F)cnc1C(=O)Nc1ccc(C(=O)NCC2CC3CN(C(=O)N[C@H]4CNC[C@@H]4O)CC3C2)c(Cl)c1 (mixture of isomers) [Example 310, rac-5-((2-chloro-4-(5-(1-(2,2-difluorocyclopropyl)-3-(trifluoromethyl)-1H-pyrazol-4-yl)-1-methyl-1H-imidazole-2-carboxamido)benzamido)methyl)-N-((3R,4R)-4-hydroxypyrrolidin-3-yl)hexahydrocyclopenta[c]pyrrole-2(1H)-carboxamide formate]
352	Cn1c(-c2cn(C3CC3)nc2C(F)(F)F)cnc1C(=O)Nc1ccc(C(=O)N2CCN(C(=O)[C@@H]3CCC[C@@H](N)C3)CC2)c(Cl)c1 [Example 287, N-(4-(4-((1R,3R)-3-aminocyclohexane-1-carbonyl)piperazine-1-carbonyl)-3-chlorophenyl)-5-(1-cyclopropyl-3-(trifluoromethyl)-1H-pyrazol-4-yl)-1-methyl-1H-imidazole-2-carboxamide hydrochloride]
244	Cn1c(-c2cn(CC3CC3)nc2C(F)(F)F)cnc1C(=O)Nc1ccc(C(=O)N2CCN(C(=O)N[C@H]3C[C@@H](N)C3)CC2)c(F)c1 [Example 218, N-((1s,3s)-3-aminocyclobutyl)-4-(4-(5-(1-(cyclopropylmethyl)-3-(trifluoromethyl)-1H-pyrazol-4-yl)-1-methyl-1H-imidazole-2-carboxamido)-2-fluorobenzoyl)piperazine-1-carboxamide; hydrochloride]
127	Cn1c(-c2cn(C3CC3(F)F)nc2C(F)(F)F)cnc1C(=O)Nc1ccc(C(=O)N[C@H]2[C@@H]3CN(C(=O)N[C@@H]4CNC[C@H]4O)C[C@@H]32)c(Cl)c1 (mixture of isomers) [Example 382, exo-6-[[2-chloro-4-[[5-[1-(2,2-difluorocyclopropyl)-3-(trifluoromethyl)pyrazol-4-yl]-1-methylimidazole-2-carbonyl]amino]benzoyl]amino]-N-[trans-4-hydroxypyrrolidin-azabicyclo[3.1.0]hexane-3-carboxamide, formate salt]
474	CCn1cc(-c2cnc(C(=O)Nc3ccc(C(=O)N4CCC(CCC(C)(C)N(C)C)CC4)c(Cl)c3)n2C)c(C(F)(F)F)n1 [Example 360, N-(3-chloro-4-(4-(3-(dimethylamino)-3-methylbutyl)piperidine-1-carbonyl)phenyl)-5-(1-ethyl-3-(trifluoromethyl)-1H-pyrazol-4-yl)-1-methyl-1H-imidazole-2-carboxamide]
347	CCn1cc(-c2cnc(C(=O)Nc3ccc(C(=O)N4CCN(C(=O)N[C@H]5C[C@@H](N)C5)CC4)c(Cl)c3)n2C)c(C(F)(F)F)n1 [Example 168, rac-N-((1s,3s)-3-aminocyclobutyl)-4-(2-chloro-4-(5-(1-ethyl-3-(trifluoromethyl)-1H-pyrazol-4-yl)-1-methyl-1H-imidazole-2-carboxamido)benzoyl)piperazine-1-carboxamide Hydrochloride]
407	Cn1c(-c2cn(C3CC3)nc2C(F)(F)F)cnc1C(=O)Nc1ccc(C(=O)N[C@H]2[C@@H]3CN(C(=O)N4CC[C@@H](N)C4)C[C@@H]32)c(Cl)c1 [Example 322, N-(4-((exo-3-((R)-3-aminopyrrolidine-1-carbonyl)-3-azabicyclo[3.1.0]hexan-6-yl)carbamoyl)-3-chlorophenyl)-5-(1-cyclopropyl-3-(trifluoromethyl)-1H-pyrazol-4-yl)-1-methyl-1H-imidazole-2-carboxamide formate]
244	Cn1c(-c2cn(C3CC3)nc2C(F)(F)F)cnc1C(=O)Nc1ccc(C(=O)N2CC[C@@H](CN)C2)c(Cl)c1 [Example 217, (S)-N-(4-(3-(aminomethyl)pyrrolidine-1-carbonyl)-3-chlorophenyl)-5-(1-cyclopropyl-3-(trifluoromethyl)-1H-pyrazol-4-yl)-1-methyl-1H-imidazole-2-carboxamide hydrochloride]
167	Cn1c(-c2cn(C3CC3(F)F)nc2C(F)(F)F)cnc1C(=O)Nc1ccc(C(=O)NC2[C@H]3CN(C(=O)N[C@H]4CCNC4)C[C@@H]23)c(Cl)c1 (mixture of isomers) [Example 189]

Source: patent publication US11390604B2 (Hoffmann-La Roche Inc., priority 2019, dated 2022)
